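1) Cells in 96-well plates. 2) Compound, 48 h, 5 concentrations. 3) Linear interpolation between surrounding doses. 4) Unreached endpoint = highest concentration. Here, GI50 denotes the concentration required for 50% inhibition of growth. TGI: concentration producing complete growth inhibition.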
How the values were obtained:
Assay in all cases: NCI-60 cell line screen, 48 h
[1] = test system: M14 melanoma
[2] = test system: NCI-H226 lung
[3] = test system: SK-MEL-28 melanoma
[4] = test system: OVCAR-5 ovarian
[5] = test system: MALME-3M melanoma
[6] = test system: SK-OV-3 ovarian
[7] = test system: HL-60(TB) leukemia
[8] = test system: NCI-H23 lung
[9] = test system: HT29 colon
[10] = test system: OVCAR-3 ovarian

Structure (SMILES)	TGI [1]	TGI [2]	TGI [3]	TGI [4]	TGI [5]	TGI [6]	TGI [7]	TGI [8]	TGI [9]	TGI [10]	GI50 [1]	GI50 [2]	GI50 [3]	GI50 [5]	GI50 [6]	GI50 [7]	GI50 [8]	GI50 [9]	GI50 [10]	GI50 [4]
CC(=O)Oc1ccccc1[C@H]1CC(=O)C[C@H](c2ccccc2OC(C)=O)C12C(=O)c1ccccc1C2=O	70.9 µM	74 µM	51.2 µM	> 100 µM	> 100 µM	> 100 µM	> 100 µM	90.5 µM	> 100 µM	89.2 µM	–	–	–	–	–	–	–	–	–	–
O=C(c1ccccc1)c1nn(-c2ccc(Cl)cc2)c2nc3nc(-c4ccccc4)cc(=O)n3nc12	> 100 µM	> 100 µM	> 100 µM	–	65.1 µM	> 100 µM	14.8 µM	> 100 µM	> 100 µM	77.8 µM	31.6 µM	> 100 µM	53.7 µM	3.08 µM	> 100 µM	3.48 µM	65.6 µM	33.1 µM	24.5 µM	–
COc1cc2cc(Oc3ccc(NC(=O)Nc4ccc(F)c(C(F)(F)F)c4)cc3)c(C)nc2cc1OCCN1CCCCC1	3.53 µM	–	3.04 µM	3.1 µM	–	3.42 µM	3.81 µM	–	–	3.44 µM	1.81 µM	–	1.65 µM	–	1.87 µM	1.91 µM	–	–	1.87 µM	1.72 µM
CCOC(=O)c1c(O)[nH]c(=O)c(CC)c1C	> 100 µM	> 100 µM	> 100 µM	> 100 µM	> 100 µM	> 100 µM	> 100 µM	> 100 µM	> 100 µM	> 100 µM	–	–	–	–	–	–	–	–	–	–
CN(C)CCN1C(=O)CC[C@@]2(C)C1=CC[C@@H]1[C@@H]2CC[C@@]2(C)[C@H]1CC[C@]2(C)O	> 100 µM	> 100 µM	> 100 µM	> 100 µM	> 100 µM	> 100 µM	> 100 µM	> 100 µM	> 100 µM	> 100 µM	–	–	–	–	–	–	–	–	–	–
CCOC(=O)c1ncoc1[C@H]1COC(C)(C)O1	> 100 µM	> 100 µM	–	> 100 µM	> 100 µM	> 100 µM	> 100 µM	> 100 µM	> 100 µM	> 100 µM	–	–	–	–	–	–	–	–	–	–
O=C(O)C(CS)NCc1c2ccccc2[n+]([O-])c2ccccc12 (centres undefined)	> 100 µM	> 100 µM	> 100 µM	> 100 µM	> 100 µM	> 100 µM	57 µM	> 100 µM	> 100 µM	> 100 µM	–	–	–	–	–	–	–	–	–	–

Source: PubChem BioAssay (NCI)
